Experimental data from ChEMBL document CHEMBL1201862, “PubChem BioAssay data set” (2004).
Values joined by “and” are separate entries in the source; they are usually repeats but may differ in a detail not shown here. Equal entries are not always repeated.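 1) Cells in 96-well plates. 2) Compound, 48 h, 5 concentrations. 3) Linear interpolation between surrounding doses. 4) Unreached endpoint = highest concentration. GI50 is the concentration that inhibits growth by half.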 Active and inactive are the calls of the source. No stated cut-off is given here; in the data, active = GI50 up to about 1.1 µM and inactive = higher.

Tests used:
Experiment in all cases: inhibition of tumour cell growth, NCI panel, 48 h
[1] = system: KM12
[2] = system: COLO 205
[3] = system: 786-0
[4] = system: HCC 2998
[5] = system: CAKI-1
[6] = system: HCT-116
[7] = system: UO-31
[8] = system: OVCAR-4
[9] = system: OVCAR-3
[10] = system: NCI-H460
[11] = system: SNB-19
[12] = system: SF-295
[13] = system: A498
[14] = system: SK-MEL-2
[15] = system: SF-268
[16] = system: HOP-62
[17] = system: M14
[18] = system: EKVX
[19] = system: OVCAR-5

Measured: GI50

COc1ccc(C(=O)CC(=O)C(=O)Nc2ccc(C)c(C)c2)cc1
inactive: [1] > 100 µM | [2] > 51.9 µM | [3] > 69 µM | [4] 97.3 µM | [5] > 100 µM | [6] 43.8 µM | [7] 98.6 µM | [8] 85.5 µM | [9] > 100 µM | [10] > 41.3 µM | [11] > 100 µM | [12] > 100 µM | [13] > 100 µM | [14] > 100 µM | [15] 56.2 µM | [16] > 90.8 µM | [17] > 100 µM | [18] > 100 µM

C[Si](C)(C)C#C[I+]c1ccccc1
inactive: [1] 87.3 µM | [2] 17.7 µM | [3] 45.6 µM | [4] > 100 µM | [5] 42.8 µM | [6] 27.5 µM | [7] 67 µM | [8] 36.2 µM | [9] 32.7 µM | [10] > 100 µM | [11] > 100 µM | [12] > 100 µM | [13] > 100 µM | [14] > 100 µM | [15] 45.9 µM | [19] > 100 µM | [16] > 100 µM | [17] 23.5 µM | [18] 52.1 µM

O/N=C1/C(=C/c2ccc(Cl)cc2)CCCC1C(NO)c1ccc(Cl)cc1 (stereo unspecified)
inactive: [1] 19.9 µM | [2] 20.7 µM | [3] 20.7 µM | [4] 15.5 µM | [5] 23.7 µM | [6] 23.9 µM | [7] 16.6 µM | [8] 15.6 µM | [9] 16.8 µM | [10] 17.3 µM | [11] 24.2 µM | [12] 18.9 µM | [13] 18.1 µM | [14] 27.1 µM | [15] 15.9 µM | [16] 22.8 µM | [17] 16.2 µM | [18] 30.1 µM

O=c1c(Nc2ccccc2)cn(CCOc2ccccc2)c(=O)n1CCOc1ccccc1
inactive: [1] > 100 µM | [2] 69.3 µM | [3] 28.2 µM | [4] 63.1 µM | [5] 81.7 µM | [6] > 100 µM | [7] 44.4 µM | [8] 19.8 µM | [9] 35.9 µM | [10] > 100 µM | [11] 31.5 µM | [12] 52.5 µM | [13] > 100 µM | [15] 16.5 µM | [19] 57.5 µM | [16] 17.2 µM | [17] 70.5 µM | [18] 33.1 µM

CC(C)=CCSC1CC2C(CC1(C)O)C2(C)C (stereo unspecified)
inactive: [1] 19.3 µM and 14.1 µM | [2] 17.1 µM and 18.5 µM | [3] 15.9 µM and 13.1 µM | [4] 1.83 µM and 2.82 µM | [5] 14.6 µM and 12.5 µM | [6] 15.3 µM and 17.1 µM | [8] 19.7 µM and 15.8 µM | [9] 17.1 µM and 11.4 µM | [10] 18.4 µM and 14.2 µM | [11] 17.2 µM and 19.3 µM | [12] 40.7 µM and 20.9 µM | [13] 21.6 µM and 17.3 µM | [15] 18.3 µM and 16.3 µM | [19] 14.9 µM and 16.5 µM | [16] 16.4 µM and 16.6 µM | [17] 17.7 µM and 14.7 µM | [18] 12.9 µM and 16.1 µM

CCOc1ccccc1/N=N/c1c(-c2ccccc2)nn(C(=O)CC(=O)Nc2cccc(C)c2)c1-c1ccccc1
inactive: [1] 94 µM | [2] > 100 µM | [3] > 100 µM | [4] 22.7 µM | [5] > 100 µM | [6] > 100 µM | [7] 35.2 µM | [8] > 100 µM | [9] > 100 µM | [10] > 100 µM | [11] > 100 µM | [12] > 100 µM | [14] > 100 µM | [15] 74.8 µM | [19] > 100 µM | [16] > 100 µM | [17] > 100 µM | [18] 56.6 µM

CN(C)/C(=N/C(=S)Nc1ccccc1)SCc1ccccc1
inactive: [1] 7.23 µM | [2] 14.9 µM | [3] 56.1 µM | [4] 36.4 µM | [5] 24.2 µM | [7] 22.5 µM | [8] 5.47 µM | [9] 56.8 µM | [11] 40.3 µM | [12] 42.9 µM | [13] 83.8 µM | [14] 49.9 µM | [15] 48.3 µM | [19] > 100 µM | [16] 71.6 µM | [17] 67.8 µM | [18] > 100 µM

COc1ccc2c(c1)[n+]([O-])c(-c1ccccc1Cl)c(N)[n+]2[O-]
inactive: [1] 67.1 µM | [2] 18.5 µM | [3] > 100 µM | [5] > 100 µM | [6] > 100 µM | [7] 99.8 µM | [8] > 100 µM | [9] 40.6 µM | [10] 54.5 µM | [11] > 100 µM | [12] > 100 µM | [13] > 100 µM | [14] > 100 µM | [15] 74.3 µM | [19] > 100 µM | [16] > 100 µM | [17] 73.1 µM | [18] > 100 µM

Nc1c(-c2ccc(Br)cc2)[n+]([O-])c2ccccc2[n+]1[O-]
inactive: [1] > 100 µM | [2] > 100 µM | [3] > 100 µM | [5] > 100 µM | [6] > 100 µM | [7] 38.6 µM | [8] > 100 µM | [9] 92 µM | [10] > 100 µM | [11] > 100 µM | [12] > 100 µM | [13] > 100 µM | [14] > 100 µM | [15] > 100 µM | [19] > 100 µM | [16] > 100 µM | [17] > 100 µM | [18] > 100 µM

Cc1c(C(=O)/C=C/c2ccc(N(C)C)cc2)c(=O)n(-c2ccccc2)n1C
inactive: [1] > 100 µM | [2] > 100 µM | [3] > 100 µM | [4] > 100 µM | [5] > 100 µM | [6] > 100 µM | [7] > 100 µM | [9] > 100 µM | [10] > 100 µM | [11] > 100 µM | [12] > 100 µM | [13] > 100 µM | [14] > 100 µM | [15] > 100 µM | [19] > 100 µM | [18] > 100 µM

O=[N+]([O-])c1cccc(C2N3CCCCC3[C@@H]3c4[nH]c5ccccc5c4CCN23)c1 (stereo partly specified)
inactive: [2] 13.2 µM | [3] 16.9 µM | [5] 28.4 µM | [7] 11.9 µM | [8] 16 µM | [9] 15.7 µM | [10] 16.4 µM | [11] 19.7 µM | [12] 15.1 µM | [13] 15 µM | [14] 10.1 µM | [15] 12 µM | [19] 16.9 µM | [16] 16.3 µM | [17] 14.5 µM | [18] 23.1 µM

COc1cc(/C=C/C(=O)c2cccc3ccccc23)cc(OC)c1OC
inactive: [1] 4.06 µM | [3] 4.49 µM | [4] 15 µM | [5] 7.5 µM | [6] 3.82 µM | [7] 16.8 µM | [8] 6.41 µM | [9] 12.8 µM | [10] 3.78 µM | [11] 13.4 µM | [12] 10.1 µM | [13] 2.82 µM | [14] 3.46 µM | [15] 4.74 µM | [19] 14.2 µM | [16] 6.82 µM | [17] 5.93 µM | [18] 15 µM

c1ccc(-c2nnc(-c3nn(-c4ccccc4)c4nc5ccccc5nc34)o2)cc1
inactive: [1] > 100 µM | [2] 93.8 µM | [3] 46.9 µM | [4] > 100 µM | [5] > 100 µM | [6] 34.8 µM | [7] 37.2 µM | [8] > 100 µM | [9] 66.8 µM | [10] > 10 µM | [11] > 100 µM | [12] > 100 µM | [14] > 100 µM | [15] > 100 µM | [19] > 100 µM | [16] > 100 µM | [17] 79.1 µM | [18] > 100 µM

COC1(OC)C2(Cl)C3=CCCC=C3C1(Cl)C(Cl)=C2Cl
inactive: [1] 34.3 µM | [2] 18.6 µM | [3] 27.4 µM | [4] 29.2 µM | [5] 18.9 µM | [6] 17.1 µM | [7] 21.7 µM | [8] 18.2 µM | [9] 17.4 µM | [10] 26.5 µM | [11] 26.1 µM | [12] 25.1 µM | [14] 16.9 µM | [15] 27.4 µM | [19] 23.7 µM | [16] 26.3 µM | [17] 13.2 µM | [18] 16.1 µM

Nc1cc(C(=O)NC2C3CC4CC(C3)CC2C4)nc(S)n1 (stereo unspecified)
inactive: [3] > 100 µM | [4] > 100 µM | [5] > 100 µM | [6] > 100 µM | [7] > 100 µM | [8] > 100 µM | [9] > 100 µM | [10] > 100 µM | [11] > 100 µM | [13] > 100 µM | [15] > 100 µM | [16] > 100 µM | [17] > 100 µM | [18] > 100 µM
